Data published in the NIST ThermoML archive (doi:10.1021/acs.jced.6b00786).

Test: xn = mol fraction of the nth substance listed
Details: 101 kPa, Liquid, Vibrating tube method

NC=O [formamide] + O
Details	mass density [kg/m3]
274.15 K, x1 = 0.00244	1001.03
274.15 K, x1 = 0.00515	1002.28
274.15 K, x1 = 0.0086	1003.85
274.15 K, x1 = 0.02032	1009
274.15 K, x1 = 0.03478	1014.99
274.15 K, x1 = 0.04976	1020.81
274.15 K, x1 = 0.06674	1026.93
274.15 K, x1 = 0.08229	1032.24
274.15 K, x1 = 0.1171	1043.06
275.15 K, x1 = 0.00244	1001.06
275.15 K, x1 = 0.00515	1002.29
275.15 K, x1 = 0.0086	1003.84
275.15 K, x1 = 0.02032	1008.93
275.15 K, x1 = 0.03478	1014.85
275.15 K, x1 = 0.04976	1020.62
275.15 K, x1 = 0.06674	1026.67
275.15 K, x1 = 0.08229	1031.93
275.15 K, x1 = 0.1171	1042.67
276.15 K, x1 = 0.00244	1001.07
276.15 K, x1 = 0.00515	1002.28
276.15 K, x1 = 0.0086	1003.81
276.15 K, x1 = 0.02032	1008.85
276.15 K, x1 = 0.03478	1014.7
276.15 K, x1 = 0.04976	1020.4
276.15 K, x1 = 0.06674	1026.42
276.15 K, x1 = 0.08229	1031.63
276.15 K, x1 = 0.1171	1042.28
277.15 K, x1 = 0.00244	1001.06
277.15 K, x1 = 0.00515	1002.26
277.15 K, x1 = 0.0086	1003.77
277.15 K, x1 = 0.02032	1008.75
277.15 K, x1 = 0.03478	1014.54
277.15 K, x1 = 0.04976	1020.19
277.15 K, x1 = 0.06674	1026.14
277.15 K, x1 = 0.08229	1031.3
277.15 K, x1 = 0.1171	1041.88
278.15 K, x1 = 0.00244	1001.04
278.15 K, x1 = 0.00515	1002.23
278.15 K, x1 = 0.0086	1003.72
278.15 K, x1 = 0.02032	1008.64
278.15 K, x1 = 0.03478	1014.37
278.15 K, x1 = 0.04976	1019.96
278.15 K, x1 = 0.06674	1025.86
278.15 K, x1 = 0.08229	1030.99
278.15 K, x1 = 0.1171	1041.47
278.15 K, x1 = 0.1745	1056.3
278.15 K, x1 = 0.2169	1065.71
278.15 K, x1 = 0.2557	1073.39
278.15 K, x1 = 0.3026	1081.73
278.15 K, x1 = 0.351	1089.33
278.15 K, x1 = 0.4027	1096.66
278.15 K, x1 = 0.4487	1102.5
278.15 K, x1 = 0.4886	1107.05
278.15 K, x1 = 0.5601	1114.6
278.15 K, x1 = 0.5916	1117.67
278.15 K, x1 = 0.6674	1124.31
278.15 K, x1 = 0.7066	1127.46
278.15 K, x1 = 0.7495	1130.64
278.15 K, x1 = 0.7931	1133.73
278.15 K, x1 = 0.8601	1138.23
278.15 K, x1 = 0.8996	1140.73
278.15 K, x1 = 0.948	1143.61
278.15 K, x1 = 0.9753	1145.18
278.15 K, x1 = 0.9847	1145.72
278.15 K, x1 = 0.9897	1146.01
278.15 K, x1 = 0.9959	1146.38
278.15 K, x1 = 1	1146.62
279.15 K, x1 = 0.00244	1001
279.15 K, x1 = 0.00515	1002.18
279.15 K, x1 = 0.0086	1003.65
279.15 K, x1 = 0.02032	1008.52
279.15 K, x1 = 0.03478	1014.19
279.15 K, x1 = 0.04976	1019.74
279.15 K, x1 = 0.06674	1025.57
279.15 K, x1 = 0.08229	1030.68
279.15 K, x1 = 0.1171	1041.07
280.15 K, x1 = 0.00244	1000.95
280.15 K, x1 = 0.00515	1002.11
280.15 K, x1 = 0.0086	1003.57
280.15 K, x1 = 0.02032	1008.39
280.15 K, x1 = 0.03478	1014
280.15 K, x1 = 0.04976	1019.49
280.15 K, x1 = 0.06674	1025.28
280.15 K, x1 = 0.08229	1030.32
280.15 K, x1 = 0.1171	1040.65
281.15 K, x1 = 0.00244	1000.89
281.15 K, x1 = 0.00515	1002.04
281.15 K, x1 = 0.0086	1003.47
281.15 K, x1 = 0.02032	1008.25
281.15 K, x1 = 0.03478	1013.8
281.15 K, x1 = 0.04976	1019.23
281.15 K, x1 = 0.06674	1024.97
281.15 K, x1 = 0.08229	1029.97
281.15 K, x1 = 0.1171	1040.23
282.15 K, x1 = 0.00244	1000.81
282.15 K, x1 = 0.00515	1001.94
282.15 K, x1 = 0.0086	1003.37
282.15 K, x1 = 0.02032	1008.09
282.15 K, x1 = 0.03478	1013.58
282.15 K, x1 = 0.04976	1018.97
282.15 K, x1 = 0.06674	1024.66
282.15 K, x1 = 0.08229	1029.6
282.15 K, x1 = 0.1171	1039.81
283.15 K, x1 = 0.00244	1000.72
283.15 K, x1 = 0.00515	1001.84
283.15 K, x1 = 0.0086	1003.25
283.15 K, x1 = 0.02032	1007.94
283.15 K, x1 = 0.03478	1013.36
283.15 K, x1 = 0.04976	1018.7
283.15 K, x1 = 0.06674	1024.35
283.15 K, x1 = 0.08229	1029.24
283.15 K, x1 = 0.1171	1039.36
288.15 K, x1 = 0.00244	1000.07
288.15 K, x1 = 0.00515	1001.13
288.15 K, x1 = 0.0086	1002.47
288.15 K, x1 = 0.02032	1006.89
288.15 K, x1 = 0.03478	1012.11
288.15 K, x1 = 0.04976	1017.23
288.15 K, x1 = 0.06674	1022.65
288.15 K, x1 = 0.08229	1027.38
288.15 K, x1 = 0.1171	1037.14
288.15 K, x1 = 0.1745	1051.09
288.15 K, x1 = 0.2169	1059.95
288.15 K, x1 = 0.2557	1067.27
288.15 K, x1 = 0.3026	1075.25
288.15 K, x1 = 0.351	1082.54
288.15 K, x1 = 0.4027	1089.57
288.15 K, x1 = 0.4487	1095.2
288.15 K, x1 = 0.4886	1099.61
288.15 K, x1 = 0.5601	1106.92
288.15 K, x1 = 0.5916	1109.89
288.15 K, x1 = 0.6674	1116.35
288.15 K, x1 = 0.7066	1119.42
